Values of other authors, collected in patent US20080032891A1, “DEFOLIANT COMPOSITION AND METHOD” (ARYSTA L[…] AMERICA CORPORATION, priority 2006, published 2008).

SMILES	solubility in water
O=C(Nc1ccccc1)Nc1cnns1 [Thidiazuron, 1-phenyl-3-(1,2,3-thiadiazol-5-yl)-urea]	insoluble in water
CN(C)C(=O)Nc1ccc(Cl)c(Cl)c1 [diuron, 3-(3,4-dichlorophenyl)-1,1-dimethylurea]	insoluble in water
